Patent publication US20220364056A1, “SHORT-CHAIN FATTY ACID PENTANOATE AS ENHANCER FOR CELLULAR THERAPY AND ANTI-TUMOR THERAPY” (PHILIPPS-UNIVERSITÄT MARBURG, priority 2019, published 2022)

Tests used:
[1] = tested on: CD8+ cytotoxic T lymphocytes (CTLs); assay: murine CTLs cultivated under suboptimal conditions with SCFAs; cytokines and effector molecules by flow cytometry and ELISA; assay type: cell-based
From the text: It is known that the glycolytic metabolic pathway promotes IFN-γ expression and T cell effector function. […] We next investigated if acetylation of H4 was increased at CTL-characteristic loci (Ifnγ, Tbx21 and Eomes) after treatment of CTLs with pentanoate. […] Due to the high level of heterogeneity and plasticity within T lymphocytes, we next investigated possible effects of pentanoate on other CD8^+ T cell subtypes. […] To gain further insight into possible therapeutic strategies, we next investigated the impact of pentanoate on human CD8^+ T lymphocytes.
(§1) (A) Experimental design for the treatment of CTLs with the water-soluble fraction of intestinal content derived from SPF or GF mice. (B and C) Frequencies of IFN-γ- and TNF-α-producing CTLs treated with the extract from luminal content derived from indicated organs. Representative results of two experiments are shown (n=3). (D) ELISA was performed to measure the secretion of TNF-α by CLTs treated as shown in (A). (E) Quantitative measurement of total SCFA amounts in fecal samples of SPF and GF mice (n=5). (F and G) The percentage of IFN-γ^+ TNF-α^+ CTLs treated with the indicated SCFAs for three days (n=3, one of three independent experiments is shown). (H) The secretion of TNF-α from CTLs treated with SCFAs was determined by ELISA (n=3, one of two independent experiments is shown). (I) The fluorogenic HDAC assay was applied to measure the HDAC inhibitory activity of SCFAs on CTLs. The value for unstimulated CTLs was arbitrarily set to 1.0. Four independent experiments were performed. (J and K) Representative contour plots (J) and bar graphs (K) showing the frequency of IFN-γ+ and TNF-α+ cells after pentanoate (2 mM) or VPA (0.5 mM) administration. Three similar experiments were performed. (L and M) The frequency of Eomes- and T-bet-expressing CTLs treated with pentanoate (2 mM) or VPA (0.5 mM) for three days was analyzed by flow cytometry (n=4). (N) ChIP assay showing the acetylation of histone H4 at the promoter regions of Ifnγ and Eomes genes after 24 hours of treatment of CTLs with pentanoate. Data are from pooled chromatin of three mice.
Representative histogram plots (A) and bar graphs (B) are showing the frequency of Annexin V^+ cells. Three similar experiments were performed. (C) Representative effector molecule staining of CD8^+ T cells polarized under suboptimal CTL-inducing conditions, treated with pentanoate or TSA (10 nM Sigma-Aldrich) in presence of 2-DG (1 mM, Sigma-Aldrich) or rapamycin (100 nM, Sigma-Aldrich) for 3 days. Three independent experiments were performed. (D) Western blot analysis of H3Ac and H4Ac in CD8^+ T cells treated with SCFAs for 3 days. (E) Pan-H4Ac ChIP qPCR analysis for Tbx21 promoter accessibility in pentanoate-treated CTLs. Data are from pooled chromatin of three mice. (F and G) CD8^+ T cells isolated from WT and Tbx21^−/− mice were polarized under suboptimal CTL-inducing conditions in presence of increasing pentanoate concentrations. Representative contour plots (F) and bar graphs (G) show the frequency of IFN-γ+ and IL-17A^+ cells. Two similar experiments were performed. […]

human CD8+ T lymphocytes = human CD8+ T lymphocytes differentiated into CTLs, flow cytometry; assay type: cell-based; conditions: healthy donors
Method: (A and B) CD8^+ T cells isolated from spleens and LNs were polarized under Tc17-inducing conditions and treated with pentanoate for 3 days. Representative contour plots (A) and bar graphs (B) indicate the frequency of IL-17^+ and IFN-γ+ cells. Three similar experiments were performed. (C and D) CD8^+ T cells isolated from spleens and LNs were polarized under Tc9-inducing conditions and treated with pentanoate for 3 days. Representative contour plots (C) and bar graphs (D) are showing the frequency of IL-9^+ and IFN-γ+ cells. Three similar experiments were performed. (E and F) The expression of granzyme B, IFN-γ and Eomes in pentanoate-treated human CTLs was analysed by flow cytometry. Five independent experiments were performed (E). For Eomes, mean fluorescence intensity (MFI) values are shown (F, n=3).
(A) CD8^+ T cells isolated from peripheral blood of healthy donors were differentiated into CTLs in presence or absence of indicated HDACi. Representative contour plots and dot plots indicate the frequency of TNF-α+ and IFN-γ^+ cells. Data points in the graphs represent individual donors (n=4, performed in 4 independent experiments) (B-G) Phenotyping of pentanoate-treated ROR1-specific CD8^+ CAR T cells (CARROR1 T cells). (B) Experimental setup for the functional analysis is shown. (C) The cytokine secretion (IFN-γ and TNF-α) was analysed in supernatants of pentanoate-treated CARROR1 T cells by ELISA. (D) The surface expression of CD25 was measured by flow cytometry. (E) The secretion of IL-2 was detected in supernatants of CARROR1 T cells by ELISA. (F) Proliferation of CARROR1 T cells was determined by CFSE labelling. CARROR1 T cells pre-treated with pentanoate were stained with CFSE and subsequently co-cultured with […] cells in the absence of pentanoate. CD8^+ T cells without the CAR construct were used as mock control cells. […] The percentage of lysed target cells was determined in 1 hour intervals (effector-to-target cell (E:T) ratio=2.5:1). […]

mTOR = assay: phosphorylation of mTOR and S6 in human CTLs; assay type: cell-based; conditions: three days
Method: (A and B) CTLs were cultured in medium containing 1.0% FCS and treated with pentanoate (2.5 mM) for three days. Representative histogram plots and bar graphs indicate the phoshorylated levels of mTOR (A) and S6 ribosomal protein (B), respectively (n=3 pooled from three independent experiments). (C and D) Human CTLs were cultured in medium containing 1.0% serum and treated with indicated HDACi for three days. Representative histogram plots and bar graphs indicate the phoshorylated levels of mTOR (C) and S6 ribosomal protein (D), respectively (data points represent four individual healthy donors) (E) Measurement of extracellular acidification rate (ECAR) for in vitro generated murine CTLs cultured with or without 2.5 mM pentanoate for three days. ECAR was measured under basal conditions and in response to glucose (10 mM), oligomycin (2 μM), and 2-deoxy-glucose (2-DG, 100 mM). One of three independent experiments is shown.

HDAC = assay: fluorogenic HDAC assay on CTL-derived cell lysates; assay type: biochemical, murine; conditions: unstimulated CTLs set to 1.0
Method: as §1, with “(N) ChIP assay showing the acetylation of histone H4 at the promoter regions of Ifnγ and Eomes genes after 24 hours of treatment of CTLs with pentanoate. Data are from pooled chromatin of three mice.” left out

histones H3 and H4 = assay: Western blot of H3Ac and H4Ac in CD8+ T cells; assay type: cell-based, murine; conditions: SCFAs for 3 days
Method: Representative histogram plots (A) and bar graphs (B) are showing the frequency of Annexin V^+ cells. Three similar experiments were performed. (C) Representative effector molecule staining of CD8^+ T cells polarized under suboptimal CTL-inducing conditions, treated with pentanoate or TSA (10 nM Sigma-Aldrich) in presence of 2-DG (1 mM, Sigma-Aldrich) or rapamycin (100 nM, Sigma-Aldrich) for 3 days. Three independent experiments were performed. (D) Western blot analysis of H3Ac and H4Ac in CD8^+ T cells treated with SCFAs for 3 days. (E) Pan-H4Ac ChIP qPCR analysis for Tbx21 promoter accessibility in pentanoate-treated CTLs. Data are from pooled chromatin of three mice. (F and G) CD8^+ T cells isolated from WT and Tbx21^−/− mice were polarized under suboptimal CTL-inducing conditions in presence of increasing pentanoate concentrations. Representative contour plots (F) and bar graphs (G) show the frequency of IFN-γ+ and IL-17A^+ cells. Two similar experiments were performed.

class I HDAC isoforms = assay: HDAC inhibition of recombinant class I HDAC isoforms; assay type: biochemical; conditions: cell-free supernatants vs YCFA medium; TSA as control
[2] = tested on: class II HDACs (HDAC4, HDAC5, HDAC6 and HDAC9); assay: HDAC inhibition of recombinant class II HDAC isoforms; assay type: biochemical
Method: (A) The production of SCFAs, branched-chain fatty acids (BCFAs) and medium-chain fatty acids (MCFAs) by 16 human commensals was measured by GC-MS. All bacteria were grown in vitro until stationary growth phase before the measurement of fatty acids in supernatants. (B and C) HDAC inhibition of recombinant class I and class II HDAC isoforms by cell-free supernatants derived from 16 members of human commensal community. Significance was tested against YCFA medium. (D) Impact of bacterial SCFAs, BCFAs and MSCFAs on the activity of class I and II HDAC enzymes. TSA was used as a control pan-HDAC inhibitor.

SMILES: O=CC[C@@H](O)[C@H](O)[C@H](O)CO [2-DG, 2-deoxyglucose, reference compound]
- IFN-γ production in CTLs ([1]; 2-DG 1 mM or rapamycin 100 nM, 3 days): reduction

SMILES: Nc1ccccc1NC(=O)c1ccc(CNc2nccc(-c3cccnc3)n2)cc1 [mocetinostat, reference compound]
- expression of TNF-α and IFN-γ (human CD8+ T lymphocytes): promoted the similar effects
- phosphorylation level of S6 ribosomal protein (mTOR): neither mocetinostat (HDAC class I inhibitor MGCD0103) nor TMP 195 (HDAC class II inhibitor) had a significant effect

SMILES: CC(C)(CNC(=O)c1cccc(-c2noc(C(F)(F)F)n2)c1)c1coc(-c2ccccc2)n1 [TMP-195, reference compound]
- phosphorylation level of S6 ribosomal protein (mTOR): neither mocetinostat (HDAC class I inhibitor MGCD0103) nor TMP 195 (HDAC class II inhibitor) had a significant effect

SMILES: CCC(=O)O [propionate, reference compound]
- HDAC activity of CTL-derived cell lysates (HDAC): strong reduction of HDAC activity
- acetylation of histones H3 and H4 (histones H3 and H4): increased acetylation

SMILES: CC(/C=C/C(=O)NO)=C\[C@@H](C)C(=O)c1ccc(N(C)C)cc1 [TSA, trichostatin A, reference compound]
- reversal of the effect on granzyme B+IFN-γ+ cells by rapamycin ([1]; rapamycin 100 nM co-treatment): could not be reversed
- percentages of granzyme B+IFN-γ+ CD8+ T cells ([1]; vs control CTLs, TSA 10 nM, 3 days): substantially enhanced
- activity of class I HDAC isoforms (class I HDAC isoforms): inhibited
- activity of class II HDACs [2]: inhibited
